Assay results reported in ChEMBL document CHEMBL1201862, “PubChem BioAssay data set” (2004).
Activity calls are given as the source filed them.

How the values were obtained:
Transthyretin = Transthyretin (Homo sapiens, UniProt P02766); experiment: Luminescence-based cell-based high throughput dose response assay to identify activators of Transthyretin (TTR) transcription.; type: functional
Fibrinogen beta chain [1] = target: T1, Fibrinogen beta chain (Homo sapiens, UniProt P02675); experiment: Fluorescence polarization-based biochemical high throughput dose response assay to identify inhibitors that disrupt the binding of a cyclic peptide (Tn7) to the fibrin proteolytic product D-Dimer and fragment E complex [DD(E )].
Fibrinogen beta chain [2] = target: T1, Fibrinogen beta chain; experiment: Fluorescence polarization-based biochemical high throughput dose response assay to identify inhibitors that disrupt the binding of a cyclic peptide (Tn6) to the fibrin proteolytic product D-Dimer and fragment E complex [DD(E )].
[3] = BioA aminotransferase inhibition, coupled fluorescent readout – biochemical, coupled fluorescence displacement, 20-point, dry powder, dose response (AID 743357); type: functional
[4] = cytotoxicity in SR immunoblastic lymphoma cells – cell-based, CellTiter-Glo ATP luminescence, 8-48 h, dry powder, mechanism study for HRAS target identification, late-stage follow-up (AID 720608); type: functional
[5] = cytotoxicity in LOX IMVI melanoma cells – cell-based, CellTiter-Glo ATP luminescence, 8/24/48 h, dry powder, HRAS target identification, dose response (AID 720602); type: functional
[6] = time-course viability loss in HT-29 cells – cell-based, CellTiter-Glo, multiple timepoints, dry powder, HRas target identification project, dose response (AID 720598); type: functional
[7] = cytotoxicity in CCRF-CEM lymphoblastic leukemia cells – cell-based, CellTiter-Glo ATP luminescence, 8/24/48 h, dry powder, HRAS target identification, dose response (AID 720607); type: functional
[8] = cytotoxicity in SNB-75 CNS cells – cell-based, CellTiter-Glo ATP luminescence, several timepoints, dry powder, mechanism study for HRAS target identification, late-stage follow-up (AID 720624); type: functional
[9] = HepG2 hepatoma cell viability loss – plate reader, dry powder, cytotoxicity control, dose response (AID 651947); type: functional, cell-based
BJ = experiment: cells; type: functional, cell-based; conditions: Homo sapiens
[10] = PAX5 cellular inhibition readout – cell-based, plate reader, dry powder samples, selectivity assay for PAX8 inhibitor project, dose response (AID 743047); type: functional;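 note: HEK293 cells carrying a Pax5 driven CD19 promoter luciferase reporter; potency of inhibitors that lower reporter luminescence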
[11] = OV-90 cell viability loss – plate reader, dry powder, SA8, PAX8 inhibitor project, dose response (AID 743149); type: functional, cell-based
[12] = OVCAR4 cell viability loss – plate reader, dry powder, SA11, cytotoxicity control for PAX8 inhibitor project, dose response (AID 743150); type: functional, cell-based; conditions: OVCAR-4
Paired box protein Pax-8 = Paired box protein Pax-8 (Homo sapiens, UniProt Q06710); experiment: PAX8 transcriptional activity inhibition in RMG-I – RMG-I cells, luciferase, cherry-pick, dose response (AID 687027); type: functional, cell-based;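 note: luciferase reporter driven by Pax8 target thyroperoxidase promoter measured by SteadyGlo luminescence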
[13] = target: T2, Nuclear receptor subfamily 0 group B member 1 (Homo sapiens, UniProt P51843); type: functional, cell-based;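 note: HEK293T cells transfected with SF-1 and DAX-1 plus StAR promoter luciferase reporter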
T2 sequence (P51843 whole entry): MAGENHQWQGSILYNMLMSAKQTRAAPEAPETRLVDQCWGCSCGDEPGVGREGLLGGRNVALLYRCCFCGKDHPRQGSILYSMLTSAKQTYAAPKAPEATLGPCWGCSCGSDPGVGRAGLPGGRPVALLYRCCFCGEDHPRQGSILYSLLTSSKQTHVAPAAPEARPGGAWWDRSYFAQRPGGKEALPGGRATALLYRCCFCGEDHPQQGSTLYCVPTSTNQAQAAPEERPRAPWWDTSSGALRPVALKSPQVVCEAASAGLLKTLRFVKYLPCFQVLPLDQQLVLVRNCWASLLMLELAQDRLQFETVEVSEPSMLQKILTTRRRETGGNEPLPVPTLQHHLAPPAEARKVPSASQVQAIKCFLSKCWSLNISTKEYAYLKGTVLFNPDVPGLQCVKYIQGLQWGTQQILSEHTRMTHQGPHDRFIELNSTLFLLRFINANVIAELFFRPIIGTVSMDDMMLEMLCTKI

[14] = OVCAR-3 cell viability loss – plate reader, dry powder samples, PAX8 inhibitor project, dose response (AID 743044); type: functional, cell-based
[15] = HEK-293T viability loss after treatment – luminescence, T-cell screen hits, cytotoxicity control for TCR NF-kB inhibitor project, dose response (AID 489026); type: functional, cell-based;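 note: cells exposed to compound about 14 hours before the viability readout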
[16] = PAX8-dependent cell viability loss – plate reader, dry powder, dose response (AID 743049); type: functional, cell-based
[17] = A2780 cell killing – plate reader, dry powder samples, cytotoxicity control, dose response (AID 743046); type: functional, cell-based
cells = type: functional, cell-based
[18] = toxicity toward immortalized ovarian surface epithelium – cell-based, plate reader, dry powder samples, cytotoxicity control for PAX8 inhibitor project, dose response (AID 743045); type: functional
[19] = COV434 cell viability loss – plate reader, dry powder, SA7, cytotoxicity control for PAX8 inhibitor project, dose response (AID 743145); type: functional, cell-based
[20] = viability loss of HMLE_sh_eGFP cells – cell-based, luminescence, counter-screen for HMLE_sh_ECad selective toxicity project, dose response (AID 463074); type: functional, Homo sapiens;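 note: HMLE human mammary epithelial cells expressing control shRNA against eGFP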
[21] = Luminescence Cell-Based Dose Retest to Confirm Inhibitors of Cancer Stem Cells. [Related pubchem assays (depositor defined):AID2717, AID2721]; type: functional; conditions: Homo sapiens
[22] = DRD fibroblast viability loss – cell-based, non-viral oncogenic, luminescence, dose response (AID 1934); type: functional; conditions: Homo sapiens
[23] = IGROV1 cell killing – plate reader, dry powder samples, PAX8 inhibitor project, dose response (AID 743043); type: functional, cell-based; conditions: IGROV-1
[24] = inhibitors acting on PAX2 in cells – cell-based, plate reader, dry powder samples, selectivity assay for PAX8 inhibitor project, dose response (AID 743048); type: functional;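 note: HEK293 cells carrying a WT1 promoter luciferase reporter driven by expressed Pax2; potency is for inhibition of Pax2 driven reporter signal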
[25] = COV362 cell viability loss – plate reader, dry powder, SA12, cytotoxicity control for PAX8 inhibitor project, dose response (AID 743144); type: functional, cell-based

T1 sequence (P02675 whole entry, the tested form may be a part): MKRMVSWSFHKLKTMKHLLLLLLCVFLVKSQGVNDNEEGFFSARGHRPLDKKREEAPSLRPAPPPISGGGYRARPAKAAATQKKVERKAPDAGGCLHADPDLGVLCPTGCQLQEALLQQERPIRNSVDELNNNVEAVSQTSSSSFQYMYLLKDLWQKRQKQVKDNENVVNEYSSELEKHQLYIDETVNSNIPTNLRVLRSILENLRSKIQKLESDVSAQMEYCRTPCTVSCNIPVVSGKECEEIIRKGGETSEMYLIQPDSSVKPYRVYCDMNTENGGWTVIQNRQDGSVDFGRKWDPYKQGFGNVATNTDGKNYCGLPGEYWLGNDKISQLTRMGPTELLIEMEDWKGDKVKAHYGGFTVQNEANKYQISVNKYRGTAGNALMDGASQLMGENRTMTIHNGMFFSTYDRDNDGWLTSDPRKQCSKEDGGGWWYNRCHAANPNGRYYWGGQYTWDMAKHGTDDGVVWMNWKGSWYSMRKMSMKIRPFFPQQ
Paired box protein Pax-8, sequence (Q06710 whole entry): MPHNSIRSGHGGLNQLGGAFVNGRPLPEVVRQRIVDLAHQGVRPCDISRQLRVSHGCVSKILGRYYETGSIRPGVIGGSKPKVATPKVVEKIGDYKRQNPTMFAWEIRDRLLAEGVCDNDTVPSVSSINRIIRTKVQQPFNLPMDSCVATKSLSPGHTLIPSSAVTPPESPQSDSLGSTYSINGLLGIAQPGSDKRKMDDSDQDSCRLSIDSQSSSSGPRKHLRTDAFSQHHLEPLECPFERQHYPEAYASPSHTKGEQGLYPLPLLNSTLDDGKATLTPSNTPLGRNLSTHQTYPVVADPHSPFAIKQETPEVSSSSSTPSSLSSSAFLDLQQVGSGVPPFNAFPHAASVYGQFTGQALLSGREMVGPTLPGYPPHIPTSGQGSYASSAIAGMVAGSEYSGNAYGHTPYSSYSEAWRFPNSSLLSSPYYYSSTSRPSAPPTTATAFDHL

CC1CN(Cc2ccccc2)c2nc3c(c(=O)n(CC(N)=O)c(=O)n3C)n2C1 (centres undefined)
EC50 (Transthyretin): > 167000 nM (inactive)

CCOC(=O)C1(C)C(=O)CC2c3nc4ccccc4cc3CN2C1=O (centres undefined)
IC50 (Fibrinogen beta chain [1]): > 83200 nM (inactive) | IC50 (Fibrinogen beta chain [2]): 9240 nM (active)

CC(=O)c1ccc(N2CCN(C(=O)c3cc(Cl)c4c(c3)OCO4)CC2)cc1
AC50 [3]: 12200 nM (active)

Cc1onc(C(=O)N2CCN(C(c3ccc(Cl)cc3)c3ccc(Cl)cc3)CC2)c1[N+](=O)[O-]
AC50 [4]: 181 nM (active) | AC50 [5]: 199 nM (active) | AC50 [6]: 1300 nM (active) | AC50 [7]: 234 nM (active) | AC50 [8]: 723 nM (active)

c1ccc(CSc2nnc(-c3ccccc3)s2)cc1
AC50 [9]: 33800 nM (active)

Cc1cccc(N(C)S(=O)(=O)c2ccc(-c3cnc(C4CC4)o3)cc2)c1
EC50 (BJ): 40700 nM (active) | AC50 [10]: 76200 nM (active) | AC50 [11]: 1190 nM (active) | AC50 [12]: 364 nM (active) | AC50 (Paired box protein Pax-8): 1990 nM (active) | IC50 [13]: > 67500 nM (inactive) | AC50 [14]: 1890 nM (active) | IC50 [15]: > 80000 nM (inactive) | AC50 [16]: 3810 nM (active) | AC50 [17]: 3950 nM (active) | IC50 (cells): > 67500 nM (inactive) | AC50 [18]: 778 nM (active) | AC50 [19]: 823 nM (active) | AC50 [20]: 562 nM (inconclusive) | AC50 [21]: < 160 nM (active) | EC50 [22]: < 120 nM (active) | AC50 [23]: 13000 nM (active) | AC50 [24]: 33900 nM (active) | AC50 [25]: 366 nM (active)
